Data on 24 compounds can be found in patent US20250171457A1, “NITROGEN-CONTAINING HETEROCYCLIC COMPOUND HAVING NRF2 ACTIVATION EFFECT” (CHUGAI SEIYAKU KABUSHIKI KAISHA, priority 2022, published 2025).

Structures are written as SMILES.

The test system of this assay is Nrf2 transcriptional activity (pARE-Luc reporter) in HepG2 cells. The experiment in a line: In vitro Nrf2 transcriptional activity measurement by ARE-dependent reporter assay in HepG2 cell. Format: cell-based, human. Conditions: Homo sapiens; HepG2 cells transfected with pARE-Luc, 4 hours at 37° C.; luciferase activity of Example 1-54 or Example 17-23 at 3.75 μM defined as 100%. In a few lines: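 Luminescence readout (Bright-Glo) after 4 h, 37° C compound exposure of HepG2 cells carrying the ARE-luciferase vector pGL4.37. Each well converted to % response versus reference compound at 3.75 μM, and EC50 derived from dose-response curves.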
(Reporter assays use an easily measured gene product as a stand-in for the process of interest.)

Turning to `CC(C)(O)CCOc1cc(Cl)c(C(=O)N2COc3c(cccc3-c3ccc(C(=O)O)c(N4CCOCC4)c3)C2)c(Cl)c1` [Compound 4-45, 4-[3-[2,6-Dichloro-4-(3-hydroxy-3-methylbutoxy)benzoyl]-2,4-dihydro-1,3-benzoxazin-8-yl]-2-morpholin-4-ylbenzoic acid], the EC50 (commonly the concentration giving half of the maximal effect) turned out to be 10 nM.
To `Cn1cc(Oc2cc(Cl)c(C(=O)N3COc4c(cccc4-c4cc(N5CCOCC5)c(C(=O)O)cc4F)C3)c(Cl)c2)cn1` [Compound 4-46, 4-[3-[2,6-Dichloro-4-(1-methylpyrazol-4-yl)oxybenzoyl]-2,4-dihydro-1,3-benzoxazin-8-yl]-5-fluoro-2-morpholin-4-ylbenzoic acid] belongs 14 nM.
As for `COCCN1CCC(Oc2cc(Cl)c(C(=O)N3COc4c(cccc4-c4cc(N5CCOCC5)c(C(=O)O)cc4F)C3)c(Cl)c2)CC1` [Compound 4-47, 4-[3-[2,6-Dichloro-4-[1-(2-methoxyethyl)piperidin-4-yl]oxybenzoyl]-2,4-dihydro-1,3-benzoxazin-8-yl]-5-fluoro-2-morpholin-4-ylbenzoic acid], the figure is 3.3 nM.
To `CN1CCC(COc2cc(Cl)c(C(=O)N3COc4c(cccc4-c4cc(N5CCOCC5)c(C(=O)O)cc4F)C3)c(Cl)c2)CC1` [Compound 4-48, 4-[3-[2,6-Dichloro-4-[(1-methylpiperidin-4-yl)methoxy]benzoyl]-2,4-dihydro-1,3-benzoxazin-8-yl]-5-fluoro-2-morpholin-4-ylbenzoic acid] belongs 2.6 nM; to `O=C(O)c1cc(F)c(-c2cccc3c2OCN(C(=O)c2c(Cl)cc(OCCCN4CCOCC4)cc2Cl)C3)cc1N1CCOCC1` [Compound 4-49, 4-[3-[2,6-Dichloro-4-(3-morpholin-4-ylpropoxy)benzoyl]-2,4-dihydro-1,3-benzoxazin-8-yl]-5-fluoro-2-morpholin-4-ylbenzoic acid], 1.2 nM.
For the compound `CN1CC[C@@H](Oc2cc(Cl)c(C(=O)N3COc4c(cccc4-c4cc(N5CCOCC5)c(C(=O)O)cc4F)C3)c(Cl)c2)C1` [Compound 4-50, 4-[3-[2,6-Dichloro-4-[(3R)-1-methylpyrrolidin-3-yl]oxybenzoyl]-2,4-dihydro-1,3-benzoxazin-8-yl]-5-fluoro-2-morpholin-4-ylbenzoic acid], the EC50 is 2.8 nM.
To `O=C(O)c1cc(F)c(-c2cccc3c2OCN(C(=O)c2c(Cl)cc(OCCCCO)cc2Cl)C3)cc1N1CCOCC1` [Compound 4-51, 4-[3-[2,6-Dichloro-4-(4-hydroxybutoxy)benzoyl]-2,4-dihydro-1,3-benzoxazin-8-yl]-5-fluoro-2-morpholin-4-ylbenzoic acid] belongs 2.6 nM; to `CN1CCC(Oc2cc(Cl)c(C(=O)N3COc4c(cccc4-c4cc(N5CCOCC5)c(C(=O)O)cc4F)C3)c(Cl)c2)CC1` [Compound 4-52, 4-[3-[2,6-Dichloro-4-(1-methylpiperidin-4-yl)oxybenzoyl]-2,4-dihydro-1,3-benzoxazin-8-yl]-5-fluoro-2-morpholin-4-ylbenzoic acid], 1.1 nM.
As for `CN1CCCC(Oc2cc(Cl)c(C(=O)N3COc4c(cccc4-c4cc(N5CCOCC5)c(C(=O)O)cc4F)C3)c(Cl)c2)C1` (stereo not drawn) [Compound 4-53, 4-[3-[2,6-Dichloro-4-(1-methylpiperidin-3-yl)oxybenzoyl]-2,4-dihydro-1,3-benzoxazin-8-yl]-5-fluoro-2-morpholin-4-ylbenzoic acid], the figure is 2.9 nM; as for `CCOc1cc(Cl)c(C(=O)N2COc3c(cccc3-c3cc(N4CCOCC4)c(C(=O)O)cc3F)C2)cc1OC` [Compound 4-54, 4-[3-(2-Chloro-4-ethoxy-5-methoxybenzoyl)-2,4-dihydro-1,3-benzoxazin-8-yl]-5-fluoro-2-morpholin-4-ylbenzoic acid], 1.2 nM; as for `COCCOc1cc(Cl)c(C(=O)N2COc3c(cccc3-c3cc(N4CCOCC4)c(C(=O)O)cc3F)C2)cc1OC` [Compound 4-55, 4-[3-[2-Chloro-5-methoxy-4-(2-methoxyethoxy)benzoyl]-2,4-dihydro-1,3-benzoxazin-8-yl]-5-fluoro-2-morpholin-4-ylbenzoic acid], 2 nM.
To `COC1CC2(C1)CN(c1cc(Cl)c(C(=O)N3COc4c(cccc4-c4cc(N5CC6CCC(C5)O6)c(C(=O)O)cc4F)C3)c(Cl)c1)C2` [Compound 4-56, 4-[3-[2,6-Dichloro-4-(6-methoxy-2-azaspiro[3.3]heptan-2-yl)benzoyl]-2,4-dihydro-1,3-benzoxazin-8-yl]-5-fluoro-2-(8-oxa-3-azabicyclo[3.2.1]octan-3-yl)benzoic acid] belongs 1.9 nM.
Regarding `CC1(N2CCN(c3cc(Cl)c(C(=O)N4COc5c(cccc5-c5cc(N6CCOCC6)c(C(=O)O)cc5F)C4)c(Cl)c3)CC2)COC1` [Compound 4-57, 4-[3-[2,6-Dichloro-4-[4-(3-methyloxetan-3-yl)piperazin-1-yl]benzoyl]-2,4-dihydro-1,3-benzoxazin-8-yl]-5-fluoro-2-morpholin-4-ylbenzoic acid], the EC50 was found to be 4.8 nM.
As for `O=C(O)c1cc(F)c(-c2cccc3c2OCN(C(=O)c2c(Cl)cc(N4CC(N5CCOCC5)C4)cc2Cl)C3)cc1N1C2CCC1COC2` [Compound 4-58, 4-[3-[2,6-Dichloro-4-(3-morpholin-4-ylazetidin-1-yl)benzoyl]-2,4-dihydro-1,3-benzoxazin-8-yl]-5-fluoro-2-(3-oxa-8-azabicyclo[3.2.1]octan-8-yl)benzoic acid], the figure is 5.2 nM; as for `O=C(O)c1cc(F)c(-c2cccc3c2OCN(C(=O)c2c(Cl)cc(N4CCN(C5COC5)CC4)cc2Cl)C3)cc1N1C2CCC1COC2` [Compound 4-59, 4-[3-[2,6-Dichloro-4-[4-(oxetan-3-yl)piperazin-1-yl]benzoyl]-2,4-dihydro-1,3-benzoxazin-8-yl]-5-fluoro-2-(3-oxa-8-azabicyclo[3.2.1]octan-8-yl)benzoic acid], 12 nM.
`CN1CCN(c2cc(Cl)c(C(=O)N3COc4c(cccc4-c4cc(N5C6CCC5COC6)c(C(=O)O)cc4F)C3)c(Cl)c2)CC1` [Compound 4-60, 4-[3-[2,6-Dichloro-4-(4-methylpiperazin-1-yl)benzoyl]-2,4-dihydro-1,3-benzoxazin-8-yl]-5-fluoro-2-(3-oxa-8-azabicyclo[3.2.1]octan-8-yl)benzoic acid] showed an EC50 of 7.5 nM.
Regarding `COC1COC2(CN(c3cc(Cl)c(C(=O)N4COc5c(cccc5-c5cc(N6C7CCC6COC7)c(C(=O)O)cc5F)C4)c(Cl)c3)C2)OC1` [Compound 5-3, 4-[3-[2,6-Dichloro-4-(7-methoxy-5,9-dioxa-2-azaspiro[3.5]nonan-2-yl)benzoyl]-2,4-dihydro-1,3-benzoxazin-8-yl]-5-fluoro-2-(3-oxa-8-azabicyclo[3.2.1]octan-8-yl)benzoic acid], a half-maximal response (EC50) required 9.5 nM.
For the compound `O=C(O)c1cc(F)c(-c2cccc3c2OCN(C(=O)c2c(Cl)cc(N4CC5(C4)OCCO5)cc2Cl)C3)cc1N1C2CCC1COC2` [Compound 5-4, 4-[3-[2,6-Dichloro-4-(5,8-dioxa-2-azaspiro[3.4]octan-2-yl)benzoyl]-2,4-dihydro-1,3-benzoxazin-8-yl]-5-fluoro-2-(3-oxa-8-azabicyclo[3.2.1]octan-8-yl)benzoic acid], the EC50 was found to be 2.4 nM.
Take `O=C(O)c1cc(F)c(-c2cccc3c2OCN(C(=O)c2c(Cl)cc(N4CC5(C4)OCC4(CC4)CO5)cc2Cl)C3)cc1N1C2CCC1COC2` [Compound 5-5, 4-[3-[2,6-Dichloro-4-(5,10-dioxa-8-azaspiro[2.2.36.23]undecan-8-yl)benzoyl]-2,4-dihydro-1,3-benzoxazin-8-yl]-5-fluoro-2-(3-oxa-8-azabicyclo[3.2.1]octan-8-yl)benzoic acid]: the EC50 turned out to be 1 nM.
To `O=C(O)c1cc(F)c(-c2cccc3c2OCN(C(=O)c2c(Cl)cc(N4CC5(C4)OCCCCO5)cc2Cl)C3)cc1N1C2CCC1COC2` [Compound 5-6, 4-[3-[2,6-Dichloro-4-(5,10-dioxa-2-azaspiro[3.6]decan-2-yl)benzoyl]-2,4-dihydro-1,3-benzoxazin-8-yl]-5-fluoro-2-(3-oxa-8-azabicyclo[3.2.1]octan-8-yl)benzoic acid] belongs 2.3 nM.
As to `O=C(O)c1cc(F)c(-c2cccc3c2OCN(C(=O)c2c(Cl)cc(N4CC5(C4)OCC4(CCC4)CO5)cc2Cl)C3)cc1N1C2CCC1COC2` [Compound 5-8, 4-[3-[2,6-Dichloro-4-(6,11-dioxa-9-azadispiro[3.2.37.24]dodecan-9-yl)benzoyl]-2,4-dihydro-1,3-benzoxazin-8-yl]-5-fluoro-2-(3-oxa-8-azabicyclo[3.2.1]octan-8-yl)benzoic acid], the EC50 is 2 nM.
As for `COC1(OC)CC2(CN(c3cc(Cl)c(C(=O)N4COc5c(cccc5-c5cc(N6C7CCC6COC7)c(C(=O)O)cc5F)C4)c(Cl)c3)C2)C1` [Compound 5-11, 4-[3-[2,6-Dichloro-4-(6,6-dimethoxy-2-azaspiro[3.3]heptan-2-yl)benzoyl]-2,4-dihydro-1,3-benzoxazin-8-yl]-5-fluoro-2-(3-oxa-8-azabicyclo[3.2.1]octan-8-yl)benzoic acid], the figure is 3.4 nM.
To `COC1(OC)CN(c2cc(Cl)c(C(=O)N3COc4c(cccc4-c4cc(N5C6CCC5COC6)c(C(=O)O)cc4F)C3)c(Cl)c2)[C@@H]1C` [Compound 5-12, 4-[3-[2,6-Dichloro-4-[(2R)-3,3-dimethoxy-2-methylazetidin-1-yl]benzoyl]-2,4-dihydro-1,3-benzoxazin-8-yl]-5-fluoro-2-(3-oxa-8-azabicyclo[3.2.1]octan-8-yl)benzoic acid] belongs 2.1 nM; to `COC1CN(C2CN(c3cc(Cl)c(C(=O)N4COc5c(cccc5-c5cc(N6C7CCC6COC7)c(C(=O)O)cc5F)C4)c(Cl)c3)C2)C1` [Compound 5-13, 4-[3-[2,6-Dichloro-4-[3-(3-methoxyazetidin-1-yl)azetidin-1-yl]benzoyl]-2,4-dihydro-1,3-benzoxazin-8-yl]-5-fluoro-2-(3-oxa-8-azabicyclo[3.2.1]octan-8-yl)benzoic acid], 2.7 nM.
